Earlier results, collected in patent publication US6150513A, “Polyketide synthase enzymes and recombinant DNA constructs therefor” (Kosan Biosciences, Inc., priority 1998, dated 2000).
Where two headings read alike, the source gives them in different places.

How the values were obtained:
[1] = system: nigral-striatal dopamine neurons; conditions: administration of FKBP ligand
sensory neurons = conditions: compared with FK-506, FK-520 and rapamycin; Steiner et al., 1997
splenocyte proliferation = conditions: Luengo et al., 1995

CCC(C)(C)C(=O)C(=O)N1CCC[C@H]1C(=O)OCCCc1cccnc1 [GPI-1046]
effect in primate MPTP model [1]: caused brain cells to regenerate and behavioral measures to improve

CC[C@@H]1/C=C(\C)C(O)[C@H](C)C[C@H](OC)[C@H]2O[C@@](O)(C(=O)C(=O)N3CCCC[C@H]3C(=O)O[C@H](/C(C)=C/[C@@H]3CC[C@@H](O)[C@H](OC)C3)[C@H](C)[C@@H](O)CC1=O)[C@H](C)C[C@@H]2OC (stereo partly drawn) [L-685,818]
IC50 (FKBP; see Dumont et al., 1992, read-out: ED50 for FKBP binding): 0.7 nM | promoting neurite outgrowth in sensory neurons (sensory neurons): about as effective as FK-506, FK-520, and rapamycin

CO[C@H]1C[C@@H]2CC[C@@H](C)[C@@](O)(O2)C(=O)C(=O)N2CCCC[C@H]2C(=O)O[C@H]([C@H](C)C[C@@H]2CC[C@@H](O)[C@H](OC)C2)CC(=O)[C@H](C)/C=C(\C)[C@@H](O)[C@@H](OC)C(=O)[C@H](C)C[C@H](C)C2C=CC(/C=C/1C)n1c(=O)n(-c3ccccc3)c(=O)n12 [WAY-124,466]
IC50 (FKBP; see Ocain et al., 1993, target not given, context FKBP binding, read-out: IC50): 12.5 nM | promoting neurite outgrowth in sensory neurons (sensory neurons): about as effective as FK-506, FK-520, and rapamycin

COC(=O)N[C@H]1C[C@@H]2CC[C@@H](C)[C@@](O)(O2)C(=O)C(=O)N2CCCC[C@H]2C(=O)O[C@H]([C@H](C)C[C@@H]2CC[C@@H](O)[C@H](OC)C2)CC(=O)[C@H](C)/C=C(\C)[C@@H](O)[C@@H](OC)C(=O)[C@H](C)C[C@H](C)/C=C/C=C/C=C/1C [compound 1]
reduction in binding to FKBP (FKBP; relative to rapamycin, Luengo et al., 1995): 10 fold | activity in the splenocyte proliferation assay (splenocyte proliferation): complete loss of activity

CC1(C)COC(=O)CCCCCCOc2cccc(c2)[C@@H](CCc2ccccc2)OC(=O)[C@@H]2CCCCN2C(=O)C1=O [compound 2]
binding to FKBP compared with FK-506 (FKBP; in words): about as well as FK-506

COC1CC2CCC(C)C(O)(O2)C(=O)C(=O)N2CCCCC2C(=O)NC(CCc2ccccc2)C(=O)NCC(=O)N(C)CC(=O)OC1C (stereo not drawn) [compound 3]
binding to FKBP, poorer than FK-506 (FKBP; relative to FK-506): about 20 fold
